Laboratory results as given in patent US9163032B2, “Esters of DCPLA and methods of treatment using the same” (Blanchette Rockefeller Neurosciences Institute, priority 2011, dated 2015).
Several values for one entry are separate records, joined by “and”; a condition that tells them apart may be missing. Equal values may be shown once.

What was measured:
PKC-ε = PKC-ε translocation to membrane in SH-SY5Y neuroblastoma cells (Western Blot); format: cell-based, human; settings: 1 μM (20-fold higher than ASPD), relative to control
Protocol: (§1) Cells were harvested in homogenizing buffer containing 10 mM Tris-Cl (pH 7.4), 1 mM PMSF (phenylmethylsulfonyl fluoride), 1 mM EGTA, 1 mM EDTA, 50 mM NaF, and 20 μM leupeptin, and were lysed by sonication. The homogenate was centrifuged at 100,000×g for 15 min at 4° C. to obtain the cytosolic fraction (supernatant) and membrane (pellet). The pellet was resuspended in the homogenizing buffer by sonication. For whole cell protein isolation from primary neurons, the homogenizing buffer contained 1% Triton X-100. Protein concentration was measured using the Coomassie Plus (Bradford) Protein Assay kit (Pierce, USA). Following quantification, 20 μg of protein from each sample was subjected to SDS-PAGE analysis in a 4-20% gradient Tris-Glycine gel (Invitrogen, USA). The separated protein was then transferred to a nitrocellulose membrane. The membrane was blocked with 5% BSA at room temperature for 15 min and was incubated with primary antibody overnight at 4° C. After the incubation, it was washed three times with TBS-T (Tris Buffered Saline-Tween 20) and further incubated with alkaline phosphatase conjugated secondary antibody (Jackson Immunoresearch Laboratories, USA) at 1:10000 dilution for 45 min. The membrane was finally washed three times with TBS-T and developed using the 1-step NBT-BCIP substrate (Pierce, USA). The blot was imaged in an ImageQuant RT-ECL (GE Life Sciences, Piscataway, N.J.) and densitometric quantification was performed using IMAL software (Blanchette Rockefeller Neurosciences Institute, Morgantown, W. Va.). For translocation assays, PKC activation was represented as the percentage of total protein in the membrane (membrane/cytosol+membrane).

synaptophysin = test: Synaptophysin expression in primary hippocampal neurons (immunofluorescence, Western Blot); format: cell-based, rat; settings: 1 μM, 20 hr
Protocol: (§2) Cells were grown in two chambered slides (Nunc, USA) at low density. For immunofluorescence staining, the cells were washed with PBS (pH 7.4) and fixed with 4% paraformaldehyde for 4 min. Following fixation, the cells were blocked and permeabilized with 5% serum and 0.3% Triton X-100 in 1×PBS for 30 min. Cells were washed three times with 1×PBS and incubated with primary antibodies for 1 hr at 1:100 dilution. After the incubation, the slides were again washed three times in 1×PBS and were incubated with the FITC anti-mouse IgG and Rhodamine anti-rabbit IgG for 1 hr at 1:400 dilution. The cells were further washed and stained with DAPI (4′,6-diamidino-2′-phenylindole, dihydrochloride) (Thermo Scientific, USA) to stain the nucleus. Finally, the slides were washed and mounted in Pro Long Gold antifade mounting solution (Invitrogen, USA) and were viewed under a LSM 710 Meta confocal microscope (Zeiss) at 350 nm, 490 nm, and 540 nm excitation and 470 nm, 525 nm, and 625 nm emission for DAPI, FITC, and Rhodamine respectively. Six individual fields at 63× oil lens magnification were analyzed for the mean fluorescence intensity (MFI) in each channel.
as §1
(§3) To estimate the synaptic damage caused by the ASPDs on primary hippocampal neurons, the expression of synaptophysin (a presynaptic marker) and PSD-95 (a postsynaptic marker) was measured by immunofluorescence staining. […] Following a 20 hr incubation period, the cells were stained for nucleus, PSD-95, and synaptophysin. Expression levels were calculated as the change of percentage in mean fluorescence intensity compared to untreated cells.
(§4) Primary neurons, treated and untreated, were immunostained for MAP-2, synaptophysin, and PSD-95 to determine the synaptic integrity. […] Following a 20 hr incubation period, the cells were stained for MAP-2, PSD-95, and synaptophysin as described above.

PSD-95 = PSD-95 expression in primary hippocampal neurons (immunofluorescence); format: cell-based, rat; settings: 1 μM, 20 hr
Protocol: as §2, §3, §4

[1] = system: Phosphatidylserine (C2) Binding Site; test: 3H-DCPLA-ME binding to rat brain slices with C1 and C2 competitors (film-autoradiography); settings: rat brain slices
Protocol: To determine the binding site of DCPLA-ME, ^3H-DCPLA-ME was incubated with rat brain slices in the absence and presence of known C1 and C2 competitors. More specifically, rat brain sections were fixed with formaldehyde, sliced, and incubated with (1)^3H-DCPLA-ME alone; (2)^3H-DCPLA-ME with DCPLA; (3)^3H-DCPLA-ME with Phorbol ester; or (4)^3H-DCPLA-ME and Bryostatin 1. After incubation, the slices were washed with a buffer made of 130 mM NaCl, 5 mM MgCl, 5 mM KCl, 1 mM EGTA, and 0.1% bovine serum albumin in 10 mM HEPES-NaOH, pH 7.4, dried, and analyzed with film-autoradiography.

[2] = system: cultured primary rat hippocampal neurons; test: Neuroprotection against ASPD induced toxicity, MTT assay, primary neurons; format: cell-based; settings: 50 nM ASPD, 20 hr, activator 0.27 nM
Protocol: (§5) Viability of cells was measured by MTT assay. MTT (i.e., 3-(4,5-dimethylthiazol-2-yl)-2,5-diphenyltetrazolium bromide) is a tetrazolium salt that is cleaved to formazan by the succinate dehydrogenase, which is only active in viable cells. After solubilization of the formazan, the amount of dye can be quantified with a microplate reader at 570 nm along with a reference of 630 nm. For the MTT assay, 5×10^4 primary rat hippocampal neurons from 18-day-old embryonic Sprague-Dawley rat brains or SH-SY5Y cells were plated on each well of 24-well plates coated with poly-D-lysine. After treatment, the cells were washed with 1× PBS and were incubated with 200 μl of 1 mg/ml MTT solution (Sigma, USA) at 37° C. for 2 hr. Then the MTT-solution was removed and the cells were lysed with 200 μl isopropanol containing 0.04 M HCl and […] for 10 min. Finally, the reading was taken at 570 nm and 630 nm. All the samples were done in triplicate and the data were represented as the percentage of control.
Bryostatin 1, DCPLA, and DCPLA-ME were tested against ASPD-induced cytotoxicity to determine their neuroprotective efficacy.

[3] = system: primary human cortical neurons; test: 40 day culture of human primary cortical neurons: survival, synapses, branching; format: cell-based; settings: 0.27 nM
Protocol: To examine the effects of PKC-ε activation, cultured human cortical neurons in serum-free artificial medium were exposed to 100 nM DCPLA-ME added every three days, along with 50% medium replacement, for 40 days. More specifically, human primary cortical neurons were grown in Neuronal Medium (ScienCell Cat No#1521) containing neuronal growth supplement (NGS) (Sciencell Cat No#1562).
Cells were plated on poly-l-lysine (0.001%) coated plates at a density of >10000 cells/cm2. Half of the media was replaced by new media every 3 days. DCPLA-ME was dissolved in 100% ethanol and added at 100 nM final concentration. Fresh DCPLA-ME (100 nM) was added every 3 days during media change. The experiments were continued for 40 days.
Human primary neurons (ScienCell Research Laboratories, USA) were thawed and plated on poly-L-lysine coated plates at a density of 10,000 cells per cm^2 and were maintained in neuronal medium (DMEM+high glucose+neuronal growth supplement, ScienCell Research Laboratories, USA) following the recommended method. Primary human neurons were then treated with either DCPLA-ME (100 nM) or bryostatin 1 (0.27 nM) for 40 days. Fresh drug was added every third day with 50% media change.

[4] = system: rat primary hippocampal neurons; test: Neurotoxic effect of Aβ1-42 oligomers, MTT viability assay; format: cell-based; settings: 20 hr
Protocol: Amylospheroids (ASPDs) and Aβ monomers were prepared following Hoshi, M., et al. (2003) Proc Natl Acad Sci USA 100, 6370-6375, and Noguchi, A., et al. (2009) J Biol Chem 284, 32895-32905. Briefly, Aβ1-42 was dissolved in 1,1,1,3,3,3-hexafluoro-2-propanol and incubated overnight at 4° C. and then 3 hr at 37° C. The dissolved Aβ1-42 was then lyophilized in 1.5 ml polypropylene centrifuge tubes at 40 nmol/tube concentration. For preparing the ASPDs, the lyophilized Aβ was dissolved in phosphate buffered saline (PBS) without Ca^2+ or Mg^2+ at less than 50 μM concentration and rotated for 14 hr at 4° C. After incubation, the Aβ solution was purified using a 100 kDa molecular mass cutoff filter (Amicon Ultra, Millipore) and the high-molecular weight fraction was saved to obtain the most toxic ASPDs. Aβ derived diffusible ligands (ADDLs) were produced as previously described. See Lambert, M. P et al., Proc. Natl. Acad. Sci. USA, 1998, 95: 6448-6453. Briefly, Aβ1-42 was solubilized at 5 mM in dimethyl sulfoxide, diluted to 100 μM in F12k medium and was incubated at 4° C. for 24 hr. The solution was centrifuged at 14000×g for 10 min at 4° C. and the supernatant was used as the ADDLs.
as §5
To assess the neurotoxic effect of different sized oligomers, rat primary hippocampal neurons were treated with variable concentrations of these Aβ1-42 species for 20 hr. Viability of the treated cells was compared to untreated cells using the MTT assay described above.

Aβ Monomer: monomeric Aβ1-42
PKC-ε membrane translocation (PKC-ε): did not affect translocation
synaptophysin mean fluorescence intensity (synaptophysin): did not change
PSD-95 expression (PSD-95): did not change

CCC/C=C/C=C/C(=O)O[C@H]1/C(=C/C(=O)OC)C[C@H]2C[C@H]([C@@H](C)O)OC(=O)C[C@H](O)C[C@@H]3C[C@H](OC(C)=O)C(C)(C)[C@](O)(C[C@@H]4C/C(=C/C(=O)OC)C[C@H](/C=C/C(C)(C)[C@]1(O)O2)O4)O3 [Bryostatin 1]
3H-DCPLA-ME binding, 30 nM competitor ([1]; 30 nM competitor): 100%
3H-DCPLA-ME binding, 1 μM competitor ([1]; 1 μM competitor): 77%
viability of ASPD-treated primary neurons [2]: 73.23±3.6%
co-localized staining of PSD-95 and synaptophysin in puncta ([3]; 30 day old neurons): increased co-localized staining
Immunostaining of PSD-95 and synaptophysin from Western blots ([3]; 40 days): significantly higher

ADDL: Aβ derived diffusible ligands prepared from Aβ1-42, containing 6.5 monomers on average
PKC-ε membrane translocation (PKC-ε): 80.82±4.025%
synaptophysin mean fluorescence intensity (synaptophysin): 75.64±4.84 % of control
Viability of primary neuron ([4]; 50 nM): 91.15 ± 1.44 % of control
Viability of primary neuron ([4]; 500 nM): 79.01 ± 11.32 % of control
Viability of primary neuron ([4]; 1000 nM (1 μM)): 50.98±3.8 % of control and 49.02 ± 7.26 % of control
